Results published in patent US20230375502A1, “NEUROTRANSMITTER CONCENTRATION MEASURING APPARATUS FOR PROVIDING SECOND DERIVATIVE-BASED NEUROTRANSMITTER CONCENTRATION MEASUREMENT RESULT OF FAST-SCAN CYCLIC VOLTAMMETRY DATA AND METHOD THEREOF” (Daegu Gyeongbuk Institute of Science and Technology, priority 2022, published 2023).

Tested on: striatum of Parkinson's disease (PD) model (6-OHDA) mice
Assay: FSCV/SDBR measurement of tonic dopamine concentration in the striatum after levodopa infusion
Type: in vivo
Conditions: FSCV with SDBR, levodopa injected after about 15 minutes flat signal, increases for about 25 minutes, then re-saturates
From the text: FIGS. 8A and 8B illustrate results of measuring a neurotransmitter concentration in an in vivo experiment using the neurotransmitter concentration measuring apparatus according to an embodiment of the present disclosure. FIGS. 8A and 8B illustrate examples for confirming SDBR-based tonic dopamine measurement results, which can be confirmed through long-term measurement using standard FSCV data, through in vivo experiments by a neurotransmitter concentration measuring apparatus according to an embodiment of the present disclosure. The graphs 810 to 813 are shown to compare the results measured in the striatum of mice after levodopa infusion. To confirm the practicality of SDBR in the in vivo environment, FSCV results after levodopa infusion of the striatum of healthy mice and the striatum of Parkinson's disease (PD) model (6-OHDA) mice are shown in FIGS. 8A and 8B. Meanwhile, the graphs 810 to 813 of FIG. 8B show the results measured by FSCV in the striatum 15 minutes after levodopa was directly injected into the experimental mice, and the graphs 810 and 811 indicate that the amplitude of the dopamine peak consistently increases independent of drug infusion due to the background subtraction technique.

N[C@@H](Cc1ccc(O)c(O)c1)C(=O)O [levodopa]
estimated dopamine concentration after levodopa infusion (SDBR): 72.4 nM
